Laboratory results taken from patent publication US20220167645A1, “METHODS OF IMPROVING FISH FEED CONVERSION RATE AND SURVIVAL” (AQUINOVO LTD., priority 2019, published 2022).
Numbered stars: 1 amine (or outer) side, 2 acyl side, 3 side chain; on linkers, the order of the positions; unused ones are H or OH. Square brackets hold non-standard residues; d marks the D form. Suc = O=C(CCC(=O)[*:2])[*:1]; NMeV = CN[C@H](C(=O)O)C(C)C; βAla = NCCC(=O)O

Tested on: Tilapia fish
Experiment: Experiment #3: tilapia fed AN6-coated feed, treatment schedules 1 to 8 (survival, weight, length, size distribution, FCR)
Format: in vivo
Details: for increase in average fish weight: D279, compared to control; for % big fish (Big fish 279 dph >1000 g) / % small fish (Small fish 279 dph >476 g) / Δ Treatment - Control (%) big fish (>1000 g) / Δ Treatment - Control (%) small fish (>476 g) / Big fish # (Big fish 279 dph >1000 g) / Small fish # (Small fish 279 dph): 279 dph; for Average FCR/cage / Average density (body/cage) / Average weight gain/fish (g) / Average weight/fish (g) / Total weight/cage (g): D 236 to D 279, % change relative to control
Method: The following fish feed was used in this experiment: MeM (powder, manufactured by Bern Aqua), Nanolis P1, P2 (pellet sizes of 1 mm, 1.2-1.5 mm, respectively, manufactured by Ocialis) and Tilaphi 2, 3 & 4 (pellet sizes of 2 mm, 3-4 mm & 5.5 mm manufactured by Ocialis). The feed content is in described in Table 4.
Feed was coated using the following general procedure: Different amounts of the peptide AN6 (SEQ ID NO: 6) were prepared by dissolving the peptide in Tris-HCl solution (50 mM, pH=8.8) in ratio of 15 mg peptide to 1.25 ml Tris-HCl solution. Then, each of the various solutions was mixed with 3 Kg of the basic feed pellets (depending on fish size) using an electric mixer. The peptide-feed mixtures where then dried either in oven at 40° C. for 24 hours or in drying drum (at room temperature) for few hours to form coated pellets.
Tilapia fish (n=4800) were raised from day 10 (0.05 g) post-hatch (dph) in indoor tanks and then transferred to outdoor cages in ponds (40-279 dph). Each cage/tank is an experimental unit. The fish were fed to apparent satiation 2-4 times a day with feed appropriate to their age and treatment as described in Table 5.
The trial included total 48 cages representing 8 treatments, with 6 repeats each. Each cage contained about 100 fish. […] Fed to fish throughout the entire growth-trial period (for 279 days); • Treatment 2 (5 ppm from 10 dph for 120 days): The control diet with the addition of 5 mg peptide/kg of diet (Feed F). Fish were fed the peptide enriched diet for 120 days (4 months), from 10 days of age (D0—the first day of the experiment) to 130 days of age (D120), and the control diet during the last 6 months (159 days) (Feed E); • Treatment 3 (10 ppm from 10 dph for 60 days): The control diet with the addition of 10 mg peptide/kg of diet (Feed G). […] Fish were fed the peptide enriched diet for 90 days (3 months) from 10 days of age (D0) to 100 days of age (D90) and the control diet for the last 7 months (189 days) (Feed E); • Treatment 5 (10 ppm from 10 dph for 120 days): The control diet with the addition of 10 mg peptide/kg of diet (Feed G). Fish were fed the peptide enriched diet for 120 days (4 months) from 10 days of age (D0) to 130 days of age (D120) and the control diet for the last 6 months (159 days) (Feed E); • Treatment 6 (10 ppm from 100 dph for 30 days): The control diet with the addition of 10 mg peptide/kg of diet (Feed G). Fish were fed the peptide enriched diet for 30 days (1 month) from 100 days of age (D90) to 130 days of age (D120) and the control diet for the first three months (90 days from D0 to D90) and the last 6 months (159 days) (Feed E); • Treatment 7 (30 ppm from 10 dph for 60 days): The control diet with the addition of 30 mg peptide/kg of diet (Feed H). Fish were fed the peptide enriched diet for 60 days (2 months) from 10 days of age (D0) to 70 days of age (D60), and the control diet during the last 8 months (219 days) (Feed E); • Treatment 8 (30 ppm from 10 dph for 90 days): The control diet with the addition of 30 mg peptide/kg of diet (Feed H). Fish were fed the peptide enriched diet for 90 days (3 months) from 10 days of age (D0) to 100 days of age (D90) and the control diet for the last 7 months (189 days) (Feed E).
During the experimental period, fish weight and length were measured once a month. Individual fish sex was determined at days 96 and 279 of the experiment. Average fish weight per cage were calculated for each measurement period (FIG. 8). […] Between two weight measurements, average weight gain (FIG. 9A) and daily growth rates (FIG. 9B) were calculated by subtracting the average weight at the beginning and end of the measuring period and dividing by the number of days between.
In order to determine the efficiency of feed conversion into fish substance in experiments (#1, #2, #3), FCR values which reflect the amount of feed needed to grow a kilogram fish, were calculated for each period and for the entire fish growth period. […]

[1] = AN6 for 60 days, 10 mg/Kg feed (Treatment 3)
[2] = AN6 for 90 days, 30 mg/Kg feed (Treatment 8)
[3] = AN6 treated groups (Treatments 2, 3, or 8)
[4] = Treatment 2 (5 ppm from 10 dph for 120 days)
[5] = Treatment 2 (5 ppm from 10 dph for 120 days), of 451 fish
[6] = Treatment 2 (5 ppm from 10 dph for 120 days), female fish, D 96
[7] = Treatment 2 (5 ppm from 10 dph for 120 days), female fish, D 279
[8] = Treatment 2 (5 ppm from 10 dph for 120 days), male fish, D 96
[9] = Treatment 2 (5 ppm from 10 dph for 120 days), male fish, D 279
[10] = Treatment 3 (10 ppm from 10 dph for 60 days)
[11] = Treatment 3 (10 ppm from 10 dph for 60 days), of 480 fish
[12] = Treatment 3 (10 ppm from 10 dph for 60 days), female fish, D 96
[13] = Treatment 3 (10 ppm from 10 dph for 60 days), female fish, D 279
[14] = Treatment 3 (10 ppm from 10 dph for 60 days), male fish, D 96
[15] = Treatment 3 (10 ppm from 10 dph for 60 days), male fish, D 279
[16] = Treatment 4 (10 ppm from 10 dph for 90 days)
[17] = Treatment 4 (10 ppm from 10 dph for 90 days), of 463 fish
[18] = Treatment 4 (10 ppm from 10 dph for 90 days), female fish, D 96
[19] = Treatment 4 (10 ppm from 10 dph for 90 days), female fish, D 279
[20] = Treatment 4 (10 ppm from 10 dph for 90 days), male fish, D 96
[21] = Treatment 4 (10 ppm from 10 dph for 90 days), male fish, D 279
[22] = Treatment 5 (10 ppm from 10 dph for 120 days)
[23] = Treatment 5 (10 ppm from 10 dph for 120 days), of 441 fish

Substance: Succ-Asp-Ser- D-Trp -N(Me)Val-βAla-Leu-Met-NH2 (Suc-DS[dW][NMeV][βAla]LM-NH2; SMILES CSCC[C@H](NC(=O)[C@H](CC(C)C)NC(=O)CCNC(=O)[C@H](C(C)C)N(C)C(=O)[C@@H](Cc1c[nH]c2ccccc12)NC(=O)[C@H](CO)NC(=O)[C@H](CC(=O)O)NC(=O)CCC(=O)O)C(N)=O) [AN6]
- increase in average fish weight (5 mg AN6/Kg for 120 days (Treatment 2)): +7.11%
- increase in average fish weight (10 mg AN6/Kg feed from 10 dph for 120 days (Treatment 5)): +6.41%
- increased daily growth rate, on average compared to the control (5 ppm and 10 ppm AN6 for sufficient time (>90 days), throughout the experimental period): 5.8%
- FCR [1]: improved FCR significantly
- growth [1]: did not affect growth
- FCR [2]: improved FCR significantly
- growth [2]: did not affect growth
- proportion of large fish (>1000 g) [3]: higher proportion
- proportion of small fish (<476 g) [3]: lower proportion
- % big fish (Big fish 279 dph >1000 g) [4]: 16.6%
- % small fish (Small fish 279 dph >476 g) [4]: 4.7%
- Δ Treatment - Control (%) big fish (>1000 g) [4]: 6.4%
- Δ Treatment - Control (%) small fish (>476 g) [4]: −4.5%
- Big fish # (Big fish 279 dph >1000 g) [5]: 75
- Small fish # (Small fish 279 dph) [5]: 21
- Average FCR/cage [4]: −2.14%
- Average density (body/cage) [4]: 0.45%
- Average weight gain/fish (g) [4]: 6.18%
- Average weight/fish (g) [4]: 6.41%
- Total weight/cage (g) [4]: 6.71%
- Length/fish (cm) Mean [6]: 15.85 cm
- Weight/fish (g) Mean [6]: 87.35 g
- Δ Mean % (Treatment vs. control) Length/fish [6]: 0.38%
- Δ Mean % (Treatment vs. control) Weight/fish [6]: 6.24%
- Length/fish (cm) Mean [7]: 30.76 cm
- Weight/fish (g) Mean [7]: 651.83 g
- Δ Mean % (Treatment vs. control) Length/fish [7]: 2.09%
- Δ Mean % (Treatment vs. control) Weight/fish [7]: 8.30%
- Length/fish (cm) Mean [8]: 17.22 cm
- Weight/fish (g) Mean [8]: 111.8 g
- Δ Mean % (Treatment vs. control) Length/fish [8]: 0.00%
- Δ Mean % (Treatment vs. control) Weight/fish [8]: 5.97%
- Length/fish (cm) Mean [9]: 34.37 cm
- Weight/fish (g) Mean [9]: 916.05 g
- Δ Mean % (Treatment vs. control) Length/fish [9]: −0.03%
- Δ Mean % (Treatment vs. control) Weight/fish [9]: 5.86%
- % big fish (Big fish 279 dph >1000 g) [10]: 16.5%
- % small fish (Small fish 279 dph >476 g) [10]: 4.8%
- Δ Treatment - Control (%) big fish (>1000 g) [10]: 6.2%
- Δ Treatment - Control (%) small fish (>476 g) [10]: −4.3%
- Big fish # (Big fish 279 dph >1000 g) [11]: 79
- Small fish # (Small fish 279 dph) [11]: 23
- Average FCR/cage [10]: −4.28%
- Average density (body/cage) [10]: 6.91%
- Average weight gain/fish (g) [10]: 9.19%
- Average weight/fish (g) [10]: 3.44%
- Total weight/cage (g) [10]: 10.27%
- Length/fish (cm) Mean [12]: 16.03 cm
- Weight/fish (g) Mean [12]: 87.67 g
- Δ Mean % (Treatment vs. control) Length/fish [12]: 1.52%
- Δ Mean % (Treatment vs. control) Weight/fish [12]: 6.63%
- Length/fish (cm) Mean [13]: 30.5 cm
- Weight/fish (g) Mean [13]: 629.02 g
- Δ Mean % (Treatment vs. control) Length/fish [13]: 1.23%
- Δ Mean % (Treatment vs. control) Weight/fish [13]: 4.51%
- Length/fish (cm) Mean [14]: 17.19 cm
- Weight/fish (g) Mean [14]: 106.51 g
- Δ Mean % (Treatment vs. control) Length/fish [14]: −0.17%
- Δ Mean % (Treatment vs. control) Weight/fish [14]: 0.96%
- Length/fish (cm) Mean [15]: 34.14 cm
- Weight/fish (g) Mean [15]: 877.38 g
- Δ Mean % (Treatment vs. control) Length/fish [15]: −0.70%
- Δ Mean % (Treatment vs. control) Weight/fish [15]: 1.39%
- % big fish (Big fish 279 dph >1000 g) [16]: 14.7%
- % small fish (Small fish 279 dph >476 g) [16]: 4.8%
- Δ Treatment - Control (%) big fish (>1000 g) [16]: 4.4%
- Δ Treatment - Control (%) small fish (>476 g) [16]: −4.4%
- Big fish # (Big fish 279 dph >1000 g) [17]: 68
- Small fish # (Small fish 279 dph) [17]: 22
- Average FCR/cage [16]: −2.14%
- Average density (body/cage) [16]: 3.34%
- Average weight gain/fish (g) [16]: 1.69%
- Average weight/fish (g) [16]: 3.89%
- Total weight/cage (g) [16]: 7.37%
- Length/fish (cm) Mean [18]: 15.96 cm
- Weight/fish (g) Mean [18]: 86.4 g
- Δ Mean % (Treatment vs. control) Length/fish [18]: 1.08%
- Δ Mean % (Treatment vs. control) Weight/fish [18]: 5.08%
- Length/fish (cm) Mean [19]: 30.48 cm
- Weight/fish (g) Mean [19]: 631.17 g
- Δ Mean % (Treatment vs. control) Length/fish [19]: 1.16%
- Δ Mean % (Treatment vs. control) Weight/fish [19]: 4.86%
- Length/fish (cm) Mean [20]: 17.26 cm
- Weight/fish (g) Mean [20]: 111.87 g
- Δ Mean % (Treatment vs. control) Length/fish [20]: 0.23%
- Δ Mean % (Treatment vs. control) Weight/fish [20]: 6.04%
- Length/fish (cm) Mean [21]: 34.15 cm
- Weight/fish (g) Mean [21]: 881.92 g
- Δ Mean % (Treatment vs. control) Length/fish [21]: −0.67%
- Δ Mean % (Treatment vs. control) Weight/fish [21]: 1.92%
- % big fish (Big fish 279 dph >1000 g) [22]: 12.0%
- % small fish (Small fish 279 dph >476 g) [22]: 8.6%
- Δ Treatment - Control (%) big fish (>1000 g) [22]: 1.8%
- Δ Treatment - Control (%) small fish (>476 g) [22]: −0.5%
- Big fish # (Big fish 279 dph >1000 g) [23]: 53
- Small fish # (Small fish 279 dph) [23]: 38
- Average FCR/cage [22]: −0.53%
- Average density (body/cage) [22]: −1.78%
- Average weight gain/fish (g) [22]: 7.59%
